Legend:
[1] = tested on: Porcine smooth muscle cells (PSMC); experiment: Chemotactic assay on PSMC (modified Boyden chamber); type: cell-based; details: for reversal of the anti-chemotactic effect of 17βE on PSMC: antagonist 10^−7M before 17βE 10^−8M, PDGF-BB 10 ng/ml
Description: Cell migration was evaluated using a modified Boyden 48-well microchamber kit (NeuroProbe, Cabin John, MD.). Near confluent EC and PSMC were rinsed with DMEM and trypsinized. Cells were resuspended in DMEM, 5% FBS, and antibiotics, and a cell count was obtained. […] ER antagonists were added 5 minutes before 17βE. Cells were harvested by trypsinization and resuspended in DMEM, 1% FBS, and antibiotics at a concentration of 5×10^5 cells/ml. […] The two sections of the system were separated by a porous polycarbonate filter (5-μm pores), pre-treated with a gelatine solution (1.5 mg/ml), and assembled. Five hours post incubation at 37° C., the nonmigrated cells were scraped with a plastic policeman, and the migrated cells were stained using a Quick-Diff solution. The filter was then mounted on a glass slide, and migrated cells were counted using a microscope adapted to a video camera to obtain a computer-digitized image.
Cell migration was evaluated using a modified Boyden 48-well microchamber kit (NeuroProbe, Cabin John, MD.). Near confluent PAEC and PSMC were rinsed with DMEM and trypsinized. Cells were resuspended in DMEM, 5% FBS, and antibiotics, and a cell count was obtained. PAEC and PSMC were seeded at 2.5×10^5 cells/well of 6-well tissue culture plates; stimulated for 24 hours in DMEM, 5% FBS, and antibiotics with or without antisense oligomers (10^−6 mol/L) and starved for 48 hours in DMEM, 0.1% FBS, and antibiotics with or without antisense oligomers (10^−6 mol/L daily) with or without 17βE (10^−8 mol/L). Cells were harvested by trypsinization and resuspended in DMEM, 1% FBS, and antibiotics at a concentration of 5×10^5 cells/mL. Fifty μL of this cell suspension with or without antisense oligomers (10^−6 mol/L) treated with or without 17βE (10^−8 mol/L) was added in the higher-chamber of the modified Boyden chamber apparatus, and the lower chamber was filled with DMEM, 1% FBS, antibiotics plus the desired concentration of agonist either 17βE (10^−8 mol/L) or platelet-derived growth factor-BB (PDGF-BB). The 2 sections of the system were separated by a porous polycarbonate filter (5-μm pores size), pretreated with a gelatine solution (1.5 mg/mL), and assembled. Five hours postincubation at 37° C., the non-migrated cells were scraped with a plastic policeman, and the migrated cells were stained using a Quick-Diff solution (Shandon Inc). The filter was then mounted on a glass slide, and migrated cells were counted using a microscope adapted to a video camera to obtain a computer-digitized image.

p38 MAPK = experiment: Western blot of p38 MAPK phosphorylation in PSMC; type: cell-based, porcine; details: for reversal of the effect of 17βE on p38 MAPK induced by PDGF-BB: antagonist 10^−7M
Description: Confluent PAEC and PSMC were starved for 7 hours in DMEM and antibiotics. Culture medium was removed, and cells were rinsed twice with ice-cold DMEM. PSMC were incubated on ice in DMEM with or without 17βE (10^−8M) for 30 min, incubated at 37° C. for 5, 10, 15 and 30 min, then brought back on ice. Cell were then rinsed with cold DMEM, incubated on ice in DMEM, bovine serum albumin (1 mg/ml), PDGF-BB (10 ng/ml) for 30 min, incubated at 37° C. for 5 min, and then brought back on ice. PAEC were incubated on ice in DMEM with or without 17βE (10^−7M) for 30 min, then incubated at 37° C. for 5, 10, 15 and 30 min and brought back on ice. […] Total proteins were prepared by the addition of 500 μl of lysis buffer containing phenylmethylsulfonyl fluoride 1 mM, leupeptin 10 μg/ml, aprotinin 30 μg/ml, and NaVO3 1 mM (Sigma). Plates were incubated at 4° C. for 30 min and scraped, and the protein concentration was determined with a Bio-Rad protein kit (Bio-Rad, Hercules, Calif.). Same protein quantity for each cell type and condition were dissolved in Laemmli's buffer, boiled for 5 min in reducing conditions, separated by a 10% gradient SDS-PAGE (Protean II kit; Bio-Rad), and transblotted onto a 0.45-μm polyvinylidene difluoride membranes (Millipore Corp., Bedford, Mass.). The membranes were blocked in 5% Blotto-TTBS (5% nonfat dry milk; Bio-Rad), 0.05% Tween 20, 0.15 M NaCl, 25 mM Tris-HCl, pH 7.5) for 1 h at room temperature with gentle agitation and incubated overnight at 4° C. in 0.5% Blotto-TTBS with the addition of an anti-phospho p42/44 MAPK or an anti-phospho p38 MAPK rabbit polyclonal antiserums (α-pp42/44; dilution of 1:10 000, and α-pp38; dilution 1:5000, New England BioLabs, Beverly, Mass.). Membranes were washed with TTBS, and incubated at room temperature with an anti-rabbit IgG antibody coupled to horseradish peroxidase (dilution 1:10 000–1:20 000, Santa Cruz Biotechnology, Santa Cruz, Calif.) in 0.5% Blotto-TTBS for 30 min. […] Kaleidoscope molecular weight and SDS-plyacrylamide gel electrophoresis broad range marker proteins (Bio-Rad) were used as standards for SDS-plyacrylamide gel electrophoresis. Digital image densitometry (PDI Bioscience, Aurora, ON) was performed on x-ray film to determine relative percentages of p42/44 and p38 MAPK phosphorylation.
Confluent PAEC and PSMC were preteated with or without antisense sequences as described above for Western Blot analysis. Cells were rinsed twice with ice-cold DMEM. PSMC and PAEC were stimulated with or without 17βE (10^−8 mol/L) as previously described (Geraldes P). Briefly, PSMC were incubated on ice in DMEM with or without 17βE (10^−8 mol/L) for 30 minutes, incubated at 37° C. for 30 minutes, then brought back on ice. Cells were then rinsed with cold DMEM, incubated on ice in DMEM, bovine serum albumin (1 mg/mL), PDGF-BB (10 ng/mL) for 30 minutes, incubated at 37° C. for 5 and 30 minutes, and then brought back on ice. PAEC were incubated on ice in DMEM with or without 17βE (10^−8 mol/L) for 30 minutes, then incubated at 37° C. for 5 and 30 minutes and brought back on ice. Total proteins were prepared-by the addition of 500 μL of lysis buffer, incubated at 4° C. for 30 minutes and scraped to collect the proteins. Same quantity of protein was separated by a 10% gradient SDS-PAGE (Protean II kit; Bio-Rad), and transblotted onto a 0.45-μm polyvinylidene difluoride membranes (Millipore Corp.). The membranes were blocked for 1 hour at room temperature with gentle agitation and incubated overnight at 4° C. in 0.5% Blotto-TTBS with the addition of an antiphospho p42/44 MAPK or an antiphospho p38 MAPK rabbit polyclonal antiserums (α-pp42/44; dilution of 1:10000, and α-pp38; dilution 1:5 000, New England BioLabs, Beverly, Mass.). Membranes were washed with TTBS, and incubated at room temperature with an anti-rabbit IgG antibody coupled to horseradish peroxidase (dilution 1:10 000–1:20 000, Santa Cruz Biotechnology) in 0.5% Blotto-TTBS for 30 minutes. […]

SMILES	inhibition of the chemotactic effect of PDGF-BB (10 ng/mL) on PSMC ([1]; 17βE 1^−8 mol/L as printed, Example 2)	inhibition of the chemotactic effect of PDGF-BB (10 ng/ml) on PSMC ([1]; 17βE 10^−8M, Example 1)	reversal of PDGF-BB-increased p38 MAPK phosphorylation (p38 MAPK; 17βE 10^−8 mol/L 30 minutes, Example 2)	inhibition of PDGF-BB-mediated p38 MAPK phosphorylation (p38 MAPK; 17βE (10^−8M) pretreatment 30 minutes, PDGF-BB 30 min)	reduction of PDGF-BB induced phosphorylation of p38 MAPK (p38 MAPK; 17βE for 30 min)	change in basal phosphorylation of p38 MAPK (p38 MAPK; substance alone, data not shown)	reversal of the anti-chemotactic effect of 17βE on PSMC [1]	reversal of the effect of 17βE on p38 MAPK induced by PDGF-BB (p38 MAPK; PDGF-BB 30 min)
C[C@]12CC[C@@H]3c4ccc(O)cc4CC[C@H]3[C@@H]1CC[C@@H]2O [17βE, 17-beta-estradiol]	inhibited completely	inhibited completely	reversed	85%	85%	did not observe any change	–	–
O=C(c1ccc(OCN2CCCCC2)cc1)c1c(-c2ccc(O)cc2)sc2cc(O)ccc12 [Ral, Raloxifen]	–	–	–	–	–	–	reversed completely	32%
CC/C(=C(\c1ccccc1)c1ccc(OCCN(C)C)cc1)c1ccccc1 [Tam, Tamoxifen]	–	–	–	–	–	–	reversed completely	51%
CC/C(=C(\c1ccc(O)cc1)c1ccc(OCCN(C)C)cc1)c1ccccc1 [4-OHT, 4-OH-Tamoxifen]	–	–	–	–	–	–	reversed completely	53%

Reference: US7235534B2, “Antisense strategy to modulate estrogen receptor response (ER α and/or ER β )” (Institut de Cardiologie de Montreal, priority 2001, dated 2007)
